pKi: −log10 of the molar value.
Key:
human GAL3 receptor = biological target: T1, human GAL3 receptor (Homo sapiens, UniProt O60755); assay: Radioligand binding at cloned human GAL3 receptor; settings: for pKi: pyrimidines, cloned human receptor, read-out: Ki GalR3
T1 construct: expressed in transfected cells; membranes
T1 sequence (O60755 1-368): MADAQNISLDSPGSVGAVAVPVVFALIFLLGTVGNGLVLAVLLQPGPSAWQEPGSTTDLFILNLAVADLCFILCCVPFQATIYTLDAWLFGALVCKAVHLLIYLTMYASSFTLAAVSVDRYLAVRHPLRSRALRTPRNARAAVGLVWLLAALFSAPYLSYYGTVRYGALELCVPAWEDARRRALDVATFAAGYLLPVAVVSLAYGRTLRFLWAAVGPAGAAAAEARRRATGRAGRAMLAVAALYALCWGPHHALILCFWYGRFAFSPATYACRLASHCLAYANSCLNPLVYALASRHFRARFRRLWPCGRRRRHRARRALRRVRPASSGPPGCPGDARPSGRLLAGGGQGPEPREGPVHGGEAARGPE
Protocol: (§1) The present invention provides for a method of determining the binding affinity of a GAL3 antagonist, wherein the GAL3 antagonist is dissolved in a “suitable solvent”. A “suitable solvent” means one which permits the measurement of binding affinity of the GAL3 antagonist to the human GAL3 receptor at concentrations less than 1 μM, preferably less than 100 nM. Examples of solvents include, but are not limited to, DMSO, ethanol, N,N-dimethylacetamide, or water. For indolones, the preferred solvent is 3% DMSO (final concentration in the assay). For pyrimidines, the preferred solvent is 1% ethanol/0.09% polypuronic acid F-127 (final concentration in the assay). For any other type of compounds, the preferred solvent is the solvent which permits the measurement of binding affinity of a GAL3 antagonist at the lowest concentration. Once a suitable solvent is ascertained for the binding assay of the human GAL3 receptor, the same solvent is used in assays to determine the binding affinity at the GAL1 receptor, the serotonin transporter, the norepinephrine transporter, and the dopamine transporter. A solvent of 0.4% DMSO is used in the central monoamine oxidase enzyme assay.
(§2) The binding properties of the pyrimidines of the present invention were evaluated at the cloned human galanin receptors, GAL1, GAL2, and GAL3, using protocols described herein.
(§3) The binding properties of the indolones of the present invention were evaluated at the cloned human galanin receptors, GAL1, GAL2, and GAL3, using protocols described herein.
(§4) LM(tk−) cells were stably transfected with the human GALL or GAL3 receptor. CHO cells were stably transfected with the human GAL2 receptor.
(§5) cDNAs for the human and rat GAL1, and human and rat GAL3 receptors were transfected with a G-418 resistant gene into the mouse fibroblast LM(tk−) cell line by a calcium phosphate transfection method (Cullen, 1987). Stably transfected cells were selected with G-418. Human and rat GAL2 receptors were similarly transfected into CHO cells.
(§6) Membranes were harvested from stably transfected LM(tk−) cells. Adherent cells were washed twice in ice-cold phosphate buffered saline (138 mM NaCl, 8.1 mM Na2HPO4, 2.5 mM KCl, 1.2 mM KH2PO4, 0.9 mM CaCl2, 0.5 mM MgCl2, pH 7.4) and lysed by sonication in ice-cold sonication buffer (20 mM Tris-HCl, 5 mM EDTA, pH 7.7). Large particles and debris were cleared by low speed centrifugation (200×g, 5 min, 4° C.). Membranes were collected from the supernatant fraction by centrifugation (32,000×g, 18 min, 4° C.), washed with ice-cold hypotonic buffer, and collected again by centrifugation (32,000×g, 18 min, 4° C.). The final membrane pellet was resuspended by sonication into a small volume of ice-cold binding buffer (~1 ml for every 5 plates: 10 mM NaCl, 20 mM HEPES, 0.22 mM KH2PO4, 1.26 mM CaCl2, 0.81 mM MgSO4, pH 7.4). Protein concentration was measured by the Bradford method (Bradford, 1976) using Bio-Rad Reagent, with bovine serum albumin as a standard. Membranes were held on ice for up to one hour and used fresh, or flash frozen and stored in liquid nitrogen. Membranes were prepared similarly from CHO cells.
Galanin Receptors Binding assays were performed according to the following published methods: human GAL3 (PCT International Publication No. WO 98/15570), human GAL1 (PCT International Publication No. WO 95/2260), human GAL2 (PCT International Publication No. WO 97/26853).
Binding data were analyzed using nonlinear regression and statistical techniques available in the GraphPAD Prism package (San Diego, Calif.). Enzymatic assay data were derived from a standard curve of reference compound data.
The selectivity ratios for compounds of the claimed invention were calculated from the binding data presented in Tables 1-4, Table 7 and Table 9 of the subject application. […]

human GAL2 receptor = biological target: T2, human GAL2 receptor (Homo sapiens, UniProt O43603); assay: Radioligand binding at cloned human GAL2 receptor; settings: pyrimidines, read-out: Ki GalR2
T2 construct: expressed in transfected cells; membranes
T2 sequence (O43603 1-387): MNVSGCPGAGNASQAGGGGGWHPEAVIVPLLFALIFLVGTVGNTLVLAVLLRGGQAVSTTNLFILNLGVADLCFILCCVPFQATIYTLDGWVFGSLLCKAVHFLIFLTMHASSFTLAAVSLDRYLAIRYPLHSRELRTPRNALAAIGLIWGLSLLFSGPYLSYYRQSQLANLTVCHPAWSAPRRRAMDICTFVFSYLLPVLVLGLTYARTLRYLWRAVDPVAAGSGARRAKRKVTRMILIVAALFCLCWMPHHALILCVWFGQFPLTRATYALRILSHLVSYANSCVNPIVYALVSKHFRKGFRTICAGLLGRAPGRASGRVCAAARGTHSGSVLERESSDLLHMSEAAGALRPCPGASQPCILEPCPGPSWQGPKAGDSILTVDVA
Description: (§7) In order to test compounds for selective binding to the human GAL3 receptor the cloned cDNAs encoding both the human and rat GALL and GAL2 receptors have been used. The cloning and assay methods for the human and rat GAL1 receptors may be found in PCT International Publication No. WO 95/22608, the contents of which are hereby incorporated by reference. The cloning and assay methods for the human and rat GAL2 receptors may be found in PCT International Publication No. WO 97/26853, the contents of which are hereby incorporated by reference.
as §1, §2, §3, §4, §5
as §6, with “Membranes were held on ice for up to one hour and used fresh, or flash frozen and stored in liquid nitrogen. Membranes were prepared similarly from CHO cells.” left out

human GAL1 receptor = biological target: T3, human GAL1 receptor (Homo sapiens, UniProt P47211); assay: Radioligand binding at cloned human GAL1 receptor; settings: pyrimidines, read-out: Ki GalR1
T3 construct: expressed in transfected cells; membranes
T3 sequence (P47211 1-349): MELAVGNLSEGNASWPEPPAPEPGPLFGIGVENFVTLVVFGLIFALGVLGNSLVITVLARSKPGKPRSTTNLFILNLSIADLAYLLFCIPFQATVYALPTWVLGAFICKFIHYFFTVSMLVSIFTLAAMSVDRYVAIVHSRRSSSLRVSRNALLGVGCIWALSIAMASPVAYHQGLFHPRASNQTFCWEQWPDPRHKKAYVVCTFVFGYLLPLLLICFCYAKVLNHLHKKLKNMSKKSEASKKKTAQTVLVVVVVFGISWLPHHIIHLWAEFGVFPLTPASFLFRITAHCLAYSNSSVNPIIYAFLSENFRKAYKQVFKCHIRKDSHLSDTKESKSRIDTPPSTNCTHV
Description: as §7, §1, §2, §3, §4, §5
Membranes were harvested from stably transfected LM(tk−) cells. […] Protein concentration was measured by the Bradford method (Bradford, 1976) using Bio-Rad Reagent, with bovine serum albumin as a standard. […]

male Sprague-Dawley rats [1] = assay: Rat Forced Swim Test (FST); type: in vivo; settings: for Overall profile in the Forced Swim Test: conclusion of the study, male Sprague-Dawley rats
[2] = biological target: norepinephrine transporter (Rattus norvegicus, UniProt Q9WTR4); assay: Binding at native NE transporter; settings: rNE Uptk
Protocol: The binding properties of the compounds of the present invention were evaluated at one or more cloned receptors or native, tissue-derived transporters, using protocols described below.
The methods to determine binding affinity at native transporters are described in the following publications: 5HT transporter and NE transporter (Owens et al., 1997), and DA transporter (Javitch et al, 1984).

male Sprague-Dawley rats [3] = settings: ex vivo data (Leonard, 1996); cited from earlier work
male Sprague-Dawley rats [4] = assay: Rat Social Interaction Test (SIT); type: in vivo
[5] = rat FST, single p.o. administration, 10 mg/kg, 1 hr before test, listed as Flu0x, 10 mg/kg

| pKi (human GAL3 receptor) | pKi (human GAL2 receptor) | Structure (SMILES) | Overall profile in the Forced Swim Test (male Sprague-Dawley rats [1]) | other results |
| --- | --- | --- | --- | --- |
| 6.20 | < 5.30 | Cc1ccc(N(c2ccc(C)cc2)c2cc(N3CCCCC3)nc(N)n2)cc1 [Example 4] |  | pKi (human GAL1 receptor): < 5.30 |
|  |  | O=C1C(=Nc2ccc(C(F)(F)F)cc2)c2ccccc2N1c1ccccc1 [Example 95, 1-PHENYL-3-[[4-(TRIFLUOROMETHYL)PHENYL]IMINO]-1,3-DIHYDRO-2H-INDOL-2-ONE] | does not produce antidepressant-like actions in the forced swim test |  |
|  |  | Cc1ccc(Nc2cc(N3CCCCC3)nc(N(C)CCc3ccccc3)n2)cc1 [Example 22] | has antidepressant properties | pKi [2]: 4.88 |
| 6.67 |  | Cc1ccc(Nc2cc(N(C)C)nc(N3CCN(c4ncccc4C#N)CC3)n2)cc1 [Example 241] |  |  |
|  |  | O=C1C(=Nc2cc(Cl)cc(Cl)c2)c2ccccc2N1c1ccccc1 [Example 103, 3-[(3,5-DICHLOROPHENYL)IMINO]-1-PHENYL-1,3-DIHYDRO-2H-INDOL-2-ONE] | has antidepressant properties |  |
|  |  | O=C1/C(=N\c2ccc(Cl)c(Cl)c2)c2ccccc2N1c1ccsc1 [Example 272, (3Z)-3-[(3,4-DICHLOROPHENYL)IMINO]-1-(3-THIENYL)-1,3-DIHYDRO-2H-INDOL-2-ONE] | has the profile of an antidepressant |  |
|  |  | CNCCC(Oc1ccc(C(F)(F)F)cc1)c1ccccc1 (stereo not drawn) [Fluoxetine, fluoxetine, reference compound] |  | p.o. dose required to inhibit 5-HT uptake in the CNS by 50% (male Sprague-Dawley rats [3]): 7 mg/kg; Climbing (male Sprague-Dawley rats [1]; [5]): 4.5 ± 1.2 counts; Diving (male Sprague-Dawley rats [1]; [5]): 1.0 ± 0.8 counts |
|  |  | O=C1C(=Nc2ccc(Br)cc2)c2ccccc2N1c1ccccc1 [Example 98, 3-[(4-BROMOPHENYL)IMINO]-1-PHENYL-1,3-DIHYDRO-2H-INDOL-2-ONE] | produces a profile in the modified Lucki version of the FST resembling that of the clinically established antidepressant fluoxetine | Climbing (male Sprague-Dawley rats [1]; rat FST, single p.o. administration, 3 mg/kg, 1 hr before test, 3 mg/kg): significantly greater increase in climbing compared to 30 mg/kg of Example 98 |
|  |  | CN(CCc1c[nH]c2ccccc12)c1nc(Nc2ccc(F)c(F)c2)cc(N2CCCCC2)n1 [Example 15] |  | pKi [2]: < 4.30 |
|  |  | Cc1ccc(Nc2cc(N3CCCCC3)nc(N(C)CCc3c[nH]c4ccccc34)n2)cc1 [Example 11] |  | pKi [2]: < 4.30 |
|  | 6.61 | Cc1ccc(Nc2cc(N(C)C)nc(N3CCc4ccccc43)n2)cc1 [Example 75] |  |  |
|  |  | CN(C)c1cc(Nc2ccc(Cl)c(Cl)c2)nc(N2CCN(Cc3ccccc3)CC2)n1 [Example 151] | produces behavioral effects in the FST in rats that resemble those of antidepressants |  |
| 7.10 | 5.75 | COCCN(c1ccc(C)cc1)c1cc(N2CCCCC2)nc(NCCc2c[nH]c3ccccc23)n1 [Example 19] |  | pKi (human GAL1 receptor): < 5.30 |
|  |  | Cc1ccc(Nc2cc(N3CCCCC3)nc(N3CCN(c4ncccc4C(F)(F)F)CC3)n2)cc1 [Example 34] | produces an effect in the FST that resembles that of antidepressants | pKi [2]: < 4.30; GAL3/GAL1 binding ratio (Ki GAL1 divided by Ki GAL3) (human GAL3 receptor): 39 fold; Rearing (male Sprague-Dawley rats [4]; SIT, single p.o., 0.03 mg/kg): 27 ± 3; Overall profile in the Social Interaction Test (male Sprague-Dawley rats [4]; conclusion of the study, male rats): produces an anxioltyic action in the social interaction test; Immobility (male Sprague-Dawley rats [1]; rat FST, single p.o. administration, 10 mg/kg, 1 hr before test, 10 mg/kg): not significantly decrease in immobility |
| 6.72 | 5.78 | CN(C)c1cc(Nc2ccc3ccccc3c2)nc(N(C)CCc2c[nH]c3ccccc23)n1 [Example 79] |  | pKi (human GAL1 receptor): 5.42 |

| Structure (SMILES) | pKi (human GAL3 receptor) | pKi (human GAL2 receptor) | Overall profile in the Forced Swim Test (male Sprague-Dawley rats [1]) | other results |
| --- | --- | --- | --- | --- |
| CN(C)c1cc(N)nc(N(c2ccccc2)c2ccc(Cl)cc2)n1 [Example 58] | 6.11 | < 5.30 |  | pKi (human GAL1 receptor): < 5.30 |
